Experimental data: patent US20250136606A1, “MODULATORS OF TRPML, THEIR COMPOSITIONS AND METHODS OF USE” (Caraway Therapeutics, Inc., priority 2021, published 2025)

Molecular target: TRPML1 (Homo sapiens, UniProt Q9GZU1)
Test: Fluorescent TRPML1 assay (Fluo4-AM calcium fluorescence in doxycycline-induced HEK-293 Trex cells)
Format: cell-based
Details: fluorescent calcium assay
Experimental: HEK-293 Trex cells were stably transfected with a construct consisting of the human coding sequence for TRPML1 cloned into the […] plasmid pCDNA5 T/O. Mutations were introduced into the TRPML1 sequence to facilitate expression on the cell surface (Silvia Vergarajauregui, Rosa Puertollano, Traffic. 2006 March; 7(3): 337-353). Briefly, the cells are cultured in 150 mm round tissue culture dishes containing 20 mL of media. The day before the assay the cells are rinsed with DPBS-Ca—Mg and then treated briefly with Trypsin-EDTA. The Trypsin-EDTA is diluted with growth media, and cells are counted. 38×10^6 cells are re-plated into 150 mm round tissue culture dishes in media containing 0.5 ug/mL doxycycline to induce expression of hTRPML1.
The day of the experiment cells are lifted from the plates as above and collected by centrifugation. The cells are then suspended in dye loading buffer consisting of Ringer's solution supplemented with 0.1% Pluronic Acid and 1 micromolar Fluo4-AM dye. Cells are loaded for ˜60 minutes in the dark with occasional mixing. The cells are collected by centrifugation, the loading media aspirated, and the cells resuspended in 25 mL Ringer's solution and incubated ˜60 minutes in the dark. The cells are again collected by centrifugation, rinsed in Ringer's Solution and resuspended to […] in modified Ringer's solution containing 10 mM calcium.
Compounds are dissolved to a concentration of 10 millimolar with DMSO. Compound plates are created by dispensing compounds into 384 well black wall clear bottom plates (Greiner 781091). Positive and negative controls are included on each plate. Typically, different amounts of each compound are tested ranging from 100 nanoMoles (20 micromolar final concentration) decreasing in half-log steps to 31 picoMoles (6 nanomolar final concentration). Each concentration is typically tested in triplicate.
50 microliters of dye-loaded cells are dispensed into each well of the compound assay plate created above. The fluorescence in each well is then determined with an excitation wavelength of 480 nm and an emission wavelength of 540 nm using either a Molecular Devices SpectraMax multimode plate reader or a Hamamatsu FDSS/uCell plate imager.
The resulting fluorescence for each well is exported as an ascii file and loaded into our LIMS for analysis. The percent activity of each compound at each concentration is determined by comparison to the positive and negative control wells included in each plate.
EC50 values were calculated using a non-linear regression of Prism. In the table, “A” indicates an EC50 of less than 100 nM, “B” indicates an EC50 range from 100 nM to 500 nM; “C” indicates an EC50 range from 500 nM to 2 μM; and “D” indicates an EC50 greater than 2 μM.

Sequence of TRPML1 (Q9GZU1 whole entry L15A/L16A/L577A/L578A, form open): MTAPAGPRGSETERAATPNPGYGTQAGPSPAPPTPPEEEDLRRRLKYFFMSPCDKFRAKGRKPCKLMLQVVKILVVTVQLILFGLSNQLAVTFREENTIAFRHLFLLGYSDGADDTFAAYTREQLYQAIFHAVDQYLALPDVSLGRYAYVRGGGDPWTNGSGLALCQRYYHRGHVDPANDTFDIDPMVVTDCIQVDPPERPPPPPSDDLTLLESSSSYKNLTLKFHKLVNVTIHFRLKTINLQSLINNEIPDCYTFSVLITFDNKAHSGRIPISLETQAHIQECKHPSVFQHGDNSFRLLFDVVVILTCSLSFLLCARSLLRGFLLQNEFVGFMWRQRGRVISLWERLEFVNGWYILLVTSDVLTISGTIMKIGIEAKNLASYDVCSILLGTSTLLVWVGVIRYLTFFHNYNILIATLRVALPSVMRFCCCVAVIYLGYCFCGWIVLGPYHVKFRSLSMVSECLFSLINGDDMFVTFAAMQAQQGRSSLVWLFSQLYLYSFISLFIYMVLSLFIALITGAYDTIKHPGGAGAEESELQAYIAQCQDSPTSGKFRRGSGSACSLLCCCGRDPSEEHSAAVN

Question: With `CC(C)(C)OC(=O)N1CCN(c2ncnc3c2c(C2CC2)cn3-c2cc(F)cc(F)c2)C[C@@H]1C(F)(F)F` [Compound 276, tert-butyl (R)-4-(5-cyclopropyl-7-(3,5-difluorophenyl)-7H-pyrrolo[2,3-d]pyrimidin-4-yl)-2-(trifluoromethyl)piperazine-1-carboxylate] as the molecule, how does the EC50 read?
Answer: < 100 nM

Question: With `C[C@@H]1CN(c2ncnc3c2c(N2CCCC2)cn3-c2cccc(C#N)c2)CCN1C(=O)OC(C)(C)C` [Compound 277, tert-butyl (R)-4-(7-(3-cyanophenyl)-5-(pyrrolidin-1-yl)-7H-pyrrolo[2,3-d]pyrimidin-4-yl)-2-methylpiperazine-1-carboxylate] as the molecule, how does the EC50 read?
Answer: < 100 nM

Question: For `COc1cccc(-n2cc(-c3ccccn3)c3c(N4CCN(C(=O)OC(C)(C)C)C[C@@H]4C)ncnc32)c1` [Compound 278, tert-butyl (S)-4-(7-(3-methoxyphenyl)-5-(pyridin-2-yl)-7H-pyrrolo[2,3-d]pyrimidin-4-yl)-3-methylpiperazine-1-carboxylate], which EC50 is on record?
Answer: 500 to 2000 nM

Question: How did the EC50 turn out when `C[C@H]1CN(C(=O)OC(C)(C)C)CCN1c1ncnc2c1c(-c1ccccn1)cn2-c1cccc(OC(F)(F)F)c1` [Compound 279, tert-butyl (S)-3-methyl-4-(5-(pyridin-2-yl)-7-(3-(trifluoromethoxy)phenyl)-7H-pyrrolo[2,3-d]pyrimidin-4-yl)piperazine-1-carboxylate] was run?
Answer: 100 to 500 nM

Question: `C[C@H]1CN(C(=O)OC(C)(C)C)CCN1c1ncnc2c1c(-c1ccccn1)cn2-c1cccc(C#N)c1` [Compound 280, tert-butyl (S)-4-(7-(3-cyanophenyl)-5-(pyridin-2-yl)-7H-pyrrolo[2,3-d]pyrimidin-4-yl)-3-methylpiperazine-1-carboxylate] was tested. Which EC50 did it give?
Answer: 100 to 500 nM

Question: How did the EC50 turn out when `C[C@H]1CN(C(=O)OC(C)(C)C)CCN1c1ncnc2c1c(-c1cccnc1)cn2-c1cccc(OC(F)(F)F)c1` [Compound 281, tert-butyl-(S)-3-methyl-4-(5-(pyridin-3-yl)-7-(3-(trifluoromethoxy)phenyl)-7H-pyrrolo [2,3-d]pyrimidin-4-yl)piperazine-1-carboxylate] was run?
Answer: < 100 nM

Question: Which EC50 does the source give for `C[C@H]1CN(C(=O)OC(C)(C)C)CCN1c1ncnc2c1c(-c1cccnc1)cn2-c1cccc(C#N)c1` [Compound 282, tert-butyl-(S)-4-(7-(3-cyanophenyl)-5-(pyridin-3-yl)-7H-pyrrolo[2,3-d]pyrimidin-4-yl)-3-methylpiperazine-1-carboxylate] here?
Answer: 100 to 500 nM

Question: Which EC50 does the source give for `C[C@H]1CN(C(=O)OC(C)(C)C)CCN1c1ncnc2c1c(C1CCOCC1)nn2-c1cccc(Cl)c1` [Compound 284, tert-butyl (S)-4-(1-(3-chlorophenyl)-3-(tetrahydro-2H-pyran-4-yl)-1H-pyrazolo[3,4-d]pyrimidin-4-yl)-3-methylpiperazine-1-carboxylate] here?
Answer: 500 to 2000 nM

Question: `C[C@H]1CN(C(=O)OC(C)(C)C)CCN1c1ncnc2c1c(N1CCCC1)cn2-c1cccc(C#N)c1` [Compound 285, tert-butyl (S)-4-(7-(3-cyanophenyl)-5-(pyrrolidin-1-yl)-7H-pyrrolo[2,3-d]pyrimidin-4-yl)-3-methylpiperazine-1-carboxylate] was tested. Which EC50 did it give?
Answer: < 100 nM

Question: For `C[C@@H]1CCCN1c1cn(-c2cccc(Cl)c2)c2ncnc(N3CCN(C(=O)OC(C)(C)C)C[C@@H]3C)c12` [Compound 286, tert-butyl (S)-4-(7-(3-chlorophenyl)-5-((R)-2-methylpyrrolidin-1-yl)-7H-pyrrolo[2,3-d]pyrimidin-4-yl)-3-methylpiperazine-1-carboxylate], which EC50 is on record?
Answer: 100 to 500 nM

Question: With `C[C@@H]1CN(c2ncnc3c2c(N2CCCCC2)cn3-c2cccc(Cl)c2)CCN1C(=O)OC(C)(C)C` [Compound 287, tert-butyl (R)-4-(7-(3-chlorophenyl)-5-(piperidin-1-yl)-7H-pyrrolo[2,3-d]pyrimidin-4-yl)-2-methylpiperazine-1-carboxylate] as the molecule, how does the EC50 read?
Answer: < 100 nM

Question: How did the EC50 turn out when `COc1cc(F)cc(-n2cc(C3CC3)c3c(N4CCN(C(=O)OC(C)(C)C)C[C@@H]4C)ncnc32)c1` [Compound 288, tert-butyl (S)-4-(5-cyclopropyl-7-(3-fluoro-5-methoxyphenyl)-7H-pyrrolo[2,3-d]pyrimidin-4-yl)-3-methylpiperazine-1-carboxylate] was run?
Answer: 100 to 500 nM

Question: For `COc1cc(OC)cc(-n2cc(C3CC3)c3c(N4CCN(C(=O)OC(C)(C)C)C[C@@H]4C)ncnc32)c1` [Compound 289, tert-butyl (S)-4-(5-cyclopropyl-7-(3,5-dimethoxyphenyl)-7H-pyrrolo[2,3-d]pyrimidin-4-yl)-3-methylpiperazine-1-carboxylate], which EC50 is on record?
Answer: 100 to 500 nM

Question: With `C[C@H]1CN(C(=O)OC(C)(C)C)CCN1c1ncnc2c1c(C1CC1)cn2-c1ccc(F)c(C#N)c1` [Compound 290, tert-butyl (S)-4-(7-(3-cyano-4-fluorophenyl)-5-cyclopropyl-7H-pyrrolo[2,3-d]pyrimidin-4-yl)-3-methylpiperazine-1-carboxylate] as the molecule, how does the EC50 read?
Answer: < 100 nM

Question: For `C[C@H]1CN(C(=O)OC(C)(C)C)CCN1c1ncnc2c1c(C1CC1)cn2-c1cc(F)cc(C#N)c1` [Compound 291, tert-butyl (S)-4-(7-(3-cyano-5-fluorophenyl)-5-cyclopropyl-7H-pyrrolo[2,3-d]pyrimidin-4-yl)-3-methylpiperazine-1-carboxylate], which EC50 is on record?
Answer: < 100 nM

Question: How did the EC50 turn out when `C[C@H]1CN(C(=O)OC(C)(C)C)CCN1c1ncnc2c1c(C1CC1)cn2-c1cc(C#N)cc(C#N)c1` [Compound 292, tert-butyl (S)-4-(5-cyclopropyl-7-(3,5-dicyanophenyl)-7H-pyrrolo[2,3-d]pyrimidin-4-yl)-3-methylpiperazine-1-carboxylate] was run?
Answer: 100 to 500 nM

Question: With `COc1cccc(-n2cc(-c3nccnc3C)c3c(N4CCN(C(=O)OC(C)(C)C)C[C@@H]4C)ncnc32)c1` [Compound 293, tert-butyl (S)-4-(7-(3-methoxyphenyl)-5-(3-methylpyrazin-2-yl)-7H-pyrrolo[2,3-d]pyrimidin-4-yl)-3-methylpiperazine-1-carboxylate] as the molecule, how does the EC50 read?
Answer: 500 to 2000 nM

Question: `Cc1nccnc1-c1cn(-c2cccc(C#N)c2)c2ncnc(N3CCN(C(=O)OC(C)(C)C)C[C@@H]3C)c12` [Compound 294, tert-butyl (S)-4-(7-(3-cyanophenyl)-5-(3-methylpyrazin-2-yl)-7H-pyrrolo[2,3-d]pyrimidin-4-yl)-3-methylpiperazine-1-carboxylate] was tested. Which EC50 did it give?
Answer: 500 to 2000 nM

Question: For `COc1cccc(-n2cc(-c3cnccn3)c3c(N4CCN(C(=O)OC(C)(C)C)C[C@@H]4C)ncnc32)c1` [Compound 295, tert-butyl (S)-4-(7-(3-methoxyphenyl)-5-(pyrazin-2-yl)-7H-pyrrolo[2,3-d]pyrimidin-4-yl)-3-methylpiperazine-1-carboxylate], which EC50 is on record?
Answer: 500 to 2000 nM

Question: `C[C@H]1CN(C(=O)OC(C)(C)C)CCN1c1ncnc2c1c(-c1cnccn1)cn2-c1cccc(OC(F)(F)F)c1` [Compound 296, tert-butyl (S)-3-methyl-4-(5-(pyrazin-2-yl)-7-(3-(trifluoromethoxy)phenyl)-7H-pyrrolo[2,3-d]pyrimidin-4-yl)piperazine-1-carboxylate] was tested. Which EC50 did it give?
Answer: 100 to 500 nM

Question: With `C[C@H]1CN(C(=O)OC(C)(C)C)CCN1c1ncnc2c1c(-c1cnccn1)cn2-c1cccc(C#N)c1` [Compound 297, tert-butyl (S)-4-(7-(3-cyanophenyl)-5-(pyrazin-2-yl)-7H-pyrrolo[2,3-d]pyrimidin-4-yl)-3-methylpiperazine-1-carboxylate] as the molecule, how does the EC50 read?
Answer: 500 to 2000 nM

Question: Which EC50 does the source give for `C[C@H]1CN(C(=O)OC(C)(C)C)CCN1c1ncnc2c1c(N1CCC[C@H]1CO)cn2-c1cccc(Cl)c1` [Compound 298, tert-butyl (S)-4-(7-(3-chlorophenyl)-5-((S)-2-(hydroxymethyl)pyrrolidin-1-yl)-7H-pyrrolo[2,3-d]pyrimidin-4-yl)-3-methylpiperazine-1-carboxylate] here?
Answer: 500 to 2000 nM

Question: Which EC50 does the source give for `C[C@H]1CN(C(=O)OC(C)(C)C)CCN1c1ncnc2c1c(N1CCCC1)cn2-c1cc(F)c(F)c(F)c1` [Compound 356, tert-butyl (S)-3-methyl-4-(5-(pyrrolidin-1-yl)-7-(3,4,5-trifluorophenyl)-7H-pyrrolo[2,3-d]pyrimidin-4-yl)piperazine-1-carboxylate] here?
Answer: < 100 nM

Question: `C[C@H]1CN(C(=O)OC(C)(C)C)CCN1c1ncnc2c1c(C1CC1)nn2-c1cccc(C#N)c1` [Compound 357, tert-butyl (S)-4-(1-(3-cyanophenyl)-3-cyclopropyl-1H-pyrazolo[3,4-d]pyrimidin-4-yl)-3-methylpiperazine-1-carboxylate] was tested. Which EC50 did it give?
Answer: < 100 nM

Question: How did the EC50 turn out when `C[C@H]1CN(C(=O)OC(C)(C)C)CCN1c1ncnc2c1c(N1CCC(C)(C)C1)cn2-c1cccc(C#N)c1` [Compound 358, tert-Butyl (S)-4-(7-(3-cyanophenyl)-5-(3,3-dimethylpyrrolidin-1-yl)-7H-pyrrolo[2,3-d]pyrimidin-4-yl)-3-methylpiperazine-1-carboxylate] was run?
Answer: < 100 nM
